# Experimental data from paper PMC5460289, “Identification of New Shikonin Derivatives as Antitumor Agents Targeting STAT3 SH2 Domain” (Scientific Reports, 2017).
# Key:
# Format in all cases: cell-based, human
# MDA-MB-231 cells = test: Annexin V/PI double staining apoptosis assay (flow cytometry); conditions: for percentage of cell apoptosis (early and late apoptotic cells): 24 h, MDA-MB-231, control 3.12%
# Protocol: (§1) To determine whether PMM-172 induced apoptosis, Annexin V/PI double staining assay was conducted. MDA-MB-231 cells were treated with various concentrations of PMM-172 for 24 h, and the percentage of apoptotic cells was markedly elevated in a dose-dependent manner. Likewise, MDA-MB-231 cells were treated with corresponding doses of Stattic. […] The percentages of cell apoptosis 3.12%, 8.12%, 16.81%, 62.74% corresponded to the concentration of PMM-172 0, 2, 4 and 8 μM, respectively, including both the early and the late apoptotic cells. Clearly, PMM-172 can cause cell apoptosis more effectively than Stattic. Moreover, an extend time-course apoptosis analysis of MDA-MB-231 cells treated with 4 μM PMM-172 was carry out. […] To further assess the pro-apoptotic effect of PMM-172, we evaluated the cleavage of poly (ADP-ribose) polymerase (PARP) and caspase 3 in MDA-MB-231 cells after 24 h treatment with PMM-172. In this case, the active form of PARP involved in DNA repair and programmed cell death is considered as the hallmark of apoptosis.
# Figure 4 The effect of PMM-172 on the cell apoptosis of MDA-MB-231 cells. (A) MDA-MB-231 cells were treated with various concentrations of PMM-172 or Stattic for 24 h, or treated with 4 μM PMM-172 for different time. Apoptosis was analyzed by flow cytometry by using Annexin V/PI double staining. (B) The percentage of apoptotic cells in MDA-MB-231 cells treated with various concentrations of PMM-172 for 24 h. (C) The percentage of apoptotic cells in MDA-MB-231 cells treated with 4 μM PMM-172 for different time. (D) The percentage of apoptotic cells in MDA-MB-231 cells treated with various concentrations of Stattic for 24 h. (E) PARP and caspase 3 cleavage in MDA-MB-231 cells after treated with various concentrations of PMM-172 for 24 h were detected by using Western blot analysis. The relative expression level was analyzed by Image J software. […]
# Approximately 10^5 cells/well were plated in a 24 well plate and allowed to adhere. […] The samples were then analyzed by a FACSCalibur flow cytometer (Becton Dickinson, San Jose, CA, USA).
# [1] = tested on: PARP and caspase 3 cleavage in MDA-MB-231 cells; test: Western blot of PARP and caspase 3 cleavage; conditions: MDA-MB-231, 24 h treatment
# Protocol: as §1, with “In this case, the active form of PARP involved in DNA repair and programmed cell death is considered as the hallmark of apoptosis.” left out
# Figure 4 The effect of PMM-172 on the cell apoptosis of MDA-MB-231 cells. […] Apoptosis was analyzed by flow cytometry by using Annexin V/PI double staining. […] (E) PARP and caspase 3 cleavage in MDA-MB-231 cells after treated with various concentrations of PMM-172 for 24 h were detected by using Western blot analysis. The relative expression level was analyzed by Image J software. […]
# STAT5 = test: Western blot of STAT5 phosphorylation and expression; conditions: MDA-MB-231
# Protocol: Figure 6 (A) PMM-172 suppressed constitutive pSTAT3 (Tyr705) in a dose-dependent manner. (B) PMM-172 suppressed constitutive pSTAT3 (Tyr705) in a time-dependent manner. (C) MDA-MB-231 cells were treated with IL-6 (20 ng/mL) or vehicle for 30 min, with or without pretreatment with PMM-172 (2 μM) for 24 h. PMM-172 inhibited IL-6 induced phosphorylation of STAT3. (D) Stattic suppressed constitutive pSTAT3 (Tyr705) in a dose-dependent manner. (E) Stattic suppressed constitutive pSTAT3 (Tyr705) in a time-dependent manner. (F) Tyrosine phosphorylation of two STAT family proteins STAT1 and STAT5 were detected with specific antibodies. […] Data were shown as mean ± SD of three independent experiments. *P < 0.05, **P < 0.01. Cropped blots/gels were used in the figure and the gels had been run under the same experimental conditions; the full-length blots/gels are presented in Supplementary Figure S2.
# Subsequently, we evaluated the phosphorylation level of other STAT family proteins including STAT1 and STAT5.
# Cells were rinsed twice with cold PBS and then lysed with RIPA buffer containing a protease inhibitor mixture at 1:100 dilution on ice for 30 min. Insoluble components of cell lysates were removed by centrifugation (4 °C, 12000 rmp, 10 min), and protein concentrations were measured using a Pierce BCA protein assay kit. […]
smiles,measurement,setting,value
"COc1cc(OC)cc(-c2nnc(SCC(=O)O[C@H](CC=C(C)C)C3=CC(=O)c4c(O)ccc(O)c4C3=O)o2)c1 [PMM-172, (R)-1-(5,8-dihydroxy-1,4-dioxo-1,4-dihydronaphthalen-2-yl)-4-methylpent-3-en-1-yl 2-((5-(3,5-dimethoxyphenyl)-1,3,4-oxadiazol-2-yl)thio)acetate]",percentage of cell apoptosis (early and late apoptotic cells),MDA-MB-231 cells; 4 μM,16.81%
same,percentage of cell apoptosis (early and late apoptotic cells),MDA-MB-231 cells; 8 μM,62.74%
same,induction of apoptosis,"MDA-MB-231 cells; MDA-MB-231, Annexin V/PI",induced apparent apoptosis in MDA-MB-231 cells in dose- and time- dependent manners
same,PARP and caspase 3 cleavage,[1],could induce PARP and caspase 3 cleavage
same,phosphorylation and expression of STAT5,STAT5,inhibited neither the phosphorylation nor expression
